Results reported in US20120015923A1, “USE OF ANDROGRAPHOLIDE COMPOUNDS FOR TREATING INFLAMMATION AND AIRWAY DISORDERS” (NATIONAL UNIVERSITY OF SINGAPORE, priority 2009, published 2012).

Legend:
[1] = system: OVA-induced inflammatory cell recruitment; experiment: BAL fluid total and differential inflammatory cell counts, OVA mouse asthma model; format: in vivo, BALB/c mice; conditions: for total cell count in BAL fluid: 0.1, 0.5 and 1 mg/kg i.p. 2 h before and 10 h after each challenge; for total cell count in BAL fluid / eosinophil count in BAL fluid: BAL fluid 24 hours after last OVA aerosol, vs DMSO control; for eosinophil count in BAL fluid: 0.1, 0.5 and 1 mg/kg i.p.; for OVA-induced inflammatory cell counts in BAL fluid: sensitized mice 24 hours after last OVA aerosol challenge, 0.1, 0.5, 1 mg/kg
Procedure: Female BALB/c mice (Interfauna, East Yorkshire, UK), were housed in appropriate cages (maximum 4 mice/cage) at the Animal Holding Unit (AHU), NUS. The temperature and humidity of the housing environment were maintained at approximately 22° C. and 55% respectively. Commercial mouse feed and water were provided ad libitum. The beddings were changed three times a week to ensure cleanliness of the living conditions. The handling of mice and the experiments carried out strictly followed the guidelines approved by the Institutional Animal Care and Use Committee (IACUC) of NUS, Singapore.
All mice were acclimatized for at least one week before sensitization. A sensitization mixture was prepared by dissolving 20 μg of OVA and 4 mg of Al(OH)3 in 0.1 ml of Saline. The murine asthma model was developed by sensitizing the mice with 0.1 ml of sensitization mixture on Day 0 and Day 14 using intraperitoneal (i.p.) injections.
The sensitized mice were subjected to airway challenge to produce both the control model as well as the asthma model. A challenge mix was prepared by dissolving 0.15 g OVA into 15 ml of saline solution. The mice were then challenged with aerosolized 1% OVA for 30 minutes on Day 22, 23, 24 to stimulate asthmatic response. A negative control for the asthma model was developed by performing saline challenge on several mice. In this case, 15 ml of saline was used as the challenge mix.
(§1) Andrographolide or DDAG alone (0.1, 0.5, and 1 mg/kg; Sigma, St. Louis, Mo.) or vehicle (1% dimethyl sulfoxide [DMSO]) in 0.1 ml saline was given by intraperitoneal injections 2 hour before and 10 hours after each OVA aerosol challenge. Andrographolide or 14-deoxy-11,12-didehydroandrographolide (DDA) were prepared from stock. DMSO was used as a solvent to dissolve Andrographolide or DDA. A stock solution of 10 mg/ml was prepared and stored at −20° C. When used, the stock solution was thawed and diluted with Saline solution to form three different drug concentrations: 0.01 mg/ml, 0.05 mg/ml and 0.1 mg/ml.
(§2) Bronchoalveolar lavage (BAL) was conducted on Day 25, 24 hours after the final OVA/saline challenge. Mice were anaesthetized by 0.3 ml i.p. injections of an anesthetic cocktail (ketamine: medetomidine: H2O=3:4:33, Parnell, Alexandria NSW, Australia & Pfizer, Auckland, New Zealand) with 27 G½ sterile needle (PrecisionGlide®). Mice were sacrificed by cervical dislocation 5 minutes after anesthetization. 25 G½ sterile needles (PrecisionGlide®) were used for blood extraction. […] Tracheotomy was then performed and a small transverse incision was made on the exposed trachea. Blunt needles (20 G), which were connected to 1 ml sterile syringes, were inserted into the trachea through this incision and 0.5 ml of ice-cold PBS (4° C.) was instilled thrice into the lungs (0.5 ml×3). About 1.2-1.4 ml of BAL fluid was retrieved from each mouse and was kept in −80° C. for subsequent experiments.
BAL fluid collected from the lungs of the mouse was centrifuged at 3000 rpm for 5 min at 4° C. The supernatant was collected and stored at −80° C. The pellet was resuspended in 200 μl of 0.875% NH4Cl (8.75 mg NH4Cl in 1 ml MilliQ water) and incubated for 5 minutes at room temperature to remove unwanted erythrocytes. The cell suspension was then centrifuged at 3000 rpm for 5 min at 4° C. The supernatant was discarded and the pellet containing inflammatory cells was resuspended in 200 μl of RPMI with 1% BSA (10 mg BSA in 1 ml RPMI). The total number of viable cells was enumerated using a haemocytometer (10 μl of 0.4% trypan blue: 10 μl of cell suspension), under a microscope at 200×magnification.
Following the total cell count, dilutions were performed on the BAL fluid collected with the RPMI/BSA solution (1×10^5 cells per 150 μl of RPMI/BSA). Cytocentrifugation was then carried out on all samples using a Cytospin centrifuge (Thermo Shandon, Pittsburgh, USA) at 600 g for 10 minutes to fix the cells on glass slides. […]

[2] = system: IL-4, IL-5, IL-13, eotaxin and IFN-γ in the BAL fluid; experiment: Cytokine and chemokine levels in BAL fluid (ELISA), OVA mouse asthma model; format: in vivo, BALB/c mice; conditions: OVA-challenged mice
Procedure: as §1, §2
DDAG alone (0.1, 0.5, and 1 mg/kg; Sigma, St. Louis, Mo.) or vehicle (2% dimethyl sulfoxide [DMSO]) in 0.1 ml saline was given by intraperitoneal injections 2 hour before and 10 hours after each OVA aerosol challenge. In the combinational experiments, DDAG (0.1 mg/kg) in combination with Dexamethasone (0.05 mg/kg) was given intraperitoneally. In both experimental setting, saline aerosol was used as a negative control. Animal experiments were performed according to the Institutional guidelines for Animal Care and Use Committee of the National University of Singapore.
Levels of IL-4, 11-5, IL-13, eotaxin and IFN-γ in the BAL fluid were measured (IL-4, IL-5 and IFN-γ from BD Biosciences Pharmingen, San Diego, Calif., USA; IL-13 and eotaxin from R&D Systems, Minneapolis, Minn., USA). The kits were obtained from two different manufacturers and thus the protocols differed in certain steps. In brief, 50 μl of coating capture antibody in respective coating buffers (pH 9.5, 0.1 M sodium carbonate for IL-4, IL-5 and IFN-γ; 1×PBS for IL-13 and eotaxin) was coated to 96-well ELISA plate (NUNC, Denmark). The plate was sealed with parafilm and incubated overnight at respective temperature (4° C. for IL-4, IL-5 and IFN-γ and room temperature for IL-13 and eotaxin). Next day, each well was washed with washing buffer (PBS with 0.05% Tween-20) and blocked with 200 μl blocking buffer (PBS with 10% FBS for IL-4, IL-5 and IFN-γ; 1×PBS with 1% BSA and 5% sucrose for IL-13 and eotaxin) for 2 hours at room temperature. After blocking, 50 μl of standards and BAL fluid samples were loaded into respective wells, and incubated for 2 h at room temperature. Several washings were done to remove unbound molecules. The plate was incubated with biotinylated-detection antibody with HRP for 1 h (BD OptEIA™ Kit) or with biotinylated detection antibody for 1 h followed by HRP for 45 min (R&D Kit). After washing, 50 μl of TMB peroxidase substrate (solution A: solution B=9:1) was added into each well, and incubated for 30 min in dark. Lastly, 50 μl of stopping solution (1 M H2SO4) was added to stop the reaction. The optical density of each well in the plate was read at 450 nm with λ correction at 570 nm. Detection limits of the respective kits are as follow: 4 pg/ml for IL-4 and IL-5; 15.6 pg/ml for IL-13 and IFN-γ; and 2 pg/ml for eotaxin.

[3] = 0.1, 0.5, 1 mg/kg i.p., 24 hours after last OVA aerosol, vs DMSO control
[4] = OVA-challenged mice, high dose 1 mg/kg i.p.

Row | SMILES | total cell count in BAL fluid ([1]; OVA-challenged mice) | eosinophil count in BAL fluid ([1]; OVA-challenged mice) | OVA-induced lymphocyte counts in BAL fluid ([1]; OVA-challenged mice, dose not stated) | OVA-induced inflammatory cell counts in BAL fluid [1] | IL-4 level in BAL fluid [2, 3] | IL-5 level in BAL fluid [2, 3] | IL-13 level in BAL fluid [2, 3] | eotaxin level in BAL fluid [2, 3] | lymphocyte count in BAL fluid [1, 4] | macrophage count in BAL fluid [1, 4] | anti-inflammatory effects in mouse asthma model ([1]; low dose given alone) | IFN-γ level in BAL fluid ([2]; 1 mg/kg)
1 | C=C1CC[C@@H]2[C@](C)(CO)[C@H](O)CC[C@@]2(C)[C@@H]1C/C=C1/C(=O)OC[C@H]1O [Andrographolide] | inhibited | inhibited | inhibited | dose-dependently reduced | inhibited | inhibited | inhibited | inhibition | – | – | – | –
2 | C=C1CCC2C(C)(CO)C(O)CCC2(C)C1C=CC1=CCOC1=O (stereo not drawn) [DDAG, 14-Deoxy-11,12-didehydroandrographolide] | drastically decreased | drastically decreased | – | dose-dependently reduced | significantly (P<0.05) reduced | significantly (P<0.05) reduced | significantly (P<0.05) reduced | – | reduced | reduced | do not show any anti-inflammatory effects | markedly upregulated
